For series [1], the system named is PrP^Sc level in RML prion-infected mouse neuroblastoma cells (ScN2a-cl3). The class given is cell-based.
The nature of series [2]: Microsomal stability, mouse microsomes.
Series [3] is described as follows: Microsomal stability, human microsomes.

Some results are limits rather than exact numbers.

The values below come from article PMC3704178 (ACS medicinal chemistry letters, 2013).

In the case of `CC(=O)c1ccc(N2CCN(Cc3ccccc3)CC2)cc1` [Compound 1], in series [1], the “Antiprion potency EC50 ± SEM” value is “micromolar range”.

As to `CC(=O)c1ccc(N2CCN(Cc3cccnc3)CC2)cc1` [Compound 7], in series [1], the “Antiprion potency EC50 ± SEM” value is “micromolar range”.

On to `CC(=O)c1ccc(N2CCN(Cc3cccs3)CC2)cc1` [Compound 13], for which the “Antiprion potency EC50 ± SEM” value in series [1] is recorded as “micromolar range”.

Turning to `CC(=O)c1ccc(N2CCN(Cc3ccc(C)o3)CC2)cc1` [Compound 19], in series [1], the “Antiprion potency EC50 ± SEM” value is “micromolar range”.

For `c1cncc(CN2CCN(c3ccc(-c4nc5ccccc5o4)cc3)CC2)c1` [Compound 41], in series [1], the “Fold more potent (EC50) than furanyl 42 and thiophenyl 43” value was no less than 13 fold.

In the case of `c1cncc(CN2CCN(c3ccc(-c4nc5ccccc5s4)cc3)CC2)c1` [Compound 44], in series [2], the “Fold improvement of t1/2 in mouse microsomes compared to 41” value is on record as “approximately 2 fold”.

On to `Fc1ccc(CN2CCN(c3ccc(-c4nc5ccccc5o4)cc3)CC2)cn1` [Compound 46], for which the “Fold less potent (EC50) than parent pyridine analog 41” value in series [1] amounted to 1.5 fold.

As for `COc1ccc(CN2CCN(c3ccc(-c4nc5ccccc5o4)cc3)CC2)cn1` [Compound 47], in series [2], the “Fold improvement of t1/2 in mouse microsomes compared to 41” value is “approximately 3 fold”. Further, the “Fold less potent (EC50) than parent pyridine analog 41” value in series [1] is given as 4.5 fold. In addition, the “Fold increase in stability in human microsomes compared to 41” value in series [3] is “approximately 3 fold”.
